The test concerns synaptosomes. Kind of test: NAD+ uptake by isolated synaptosomes (synaptosomal NAD(H) levels). On the set-up: species or system mouse.

This note sets out measurements from US20120328526A1, “Modulation of Nad+ Activity in Neuropathophysiological Conditions and Uses Thereof” (University of Maryland, Baltimore, priority 2011, published 2012).

As for brilliant blue, under “purinergic receptor P2X(7)-gated channels inhibitor”, the “uptake of NAD+ by synaptosomes” value is “blocked”. In the case of `NC(=O)c1ccc[n+]([C@@H]2O[C@H](COP(=O)([O-])OP(=O)(O)OC[C@H]3O[C@@H](n4cnc5c(N)ncnc54)[C@H](O)[C@@H]3O)[C@@H](O)[C@H]2O)c1` [NAD^+, nicotinamide adenine dinucleotide], the “increase of synaptosomal NAD(H) levels compared to control samples” value (synaptosomes incubated with 10 mM NAD+) is 2 fold.
